Experimental data: publication PMC5341405, “Lapachol, a compound targeting pyrimidine metabolism, ameliorates experimental autoimmune arthritis” (Arthritis Research & Therapy, 2017)
Where two headings read alike, the source gives them in different places.

How the values were obtained:
[1] = Tolerability and serum liver enzymes during CIA protocol; format: in vivo, DBA1/J mice
Method: Male DBA/1 J mice were injected i.d. at the base of the tail with 200 μg bovine type II collagen (CII; a gift from Dr. David D. Brand, University of Tennessee Health Science Center) emulsified in Freund’s complete adjuvant (CFA) on day 0. Mice were boosted i.d. with CII (200 μg emulsified in Freund’s incomplete adjuvant (IFA)) on day 21. Mice were monitored daily for signs of arthritis. Scores were assigned based on erythema, swelling, or ankylosis present in each paw on a scale of 0 to 3, giving a maximum score of 12 per mouse. After arthritis induction, mice were treated orally with LAP (3 mg/kg and 10 mg/kg) or LEF (3 mg/kg) or saline daily. The clinical score was addressed every day after collagen boost. All mice were euthanized for histologic assessment of the hind limbs 4 weeks after the boost.
Serum concentrations of aspartate aminotransferase (AST) or alanine aminotransferase (ALT) were measured using commercial kits according to the manufacturer’s instructions (ID Labs Biotechnology Inc., London, Canada).

[2] = Pharmacokinetics after oral administration; format: in vivo, Wistar rats; conditions: for AUC(0-inf) / k el / Cmax / MRT / Tmax / half-life: Wistar, rat, plasma; for AUC(0-inf): po; for k el: read-out: Ke (converted)
Method: For administration to Wistar rats, LAP was dissolved in DMSO:Tween 80:glucose 5% in a proportion of 15:5:80 (v/v/v), resulting in a solution of 1 mg/ml (for intravenous (i.v.) administration) and another of 5 mg/ml (for oral administration). LAP was administered to rats as an i.v. bolus dose at 2 mg/kg (n = 7) and at two oral doses of 10 (n = 8) and 25 mg/kg (n = 6). LAP salt was administered as i.v. (2 mg/kg, n = 6) and oral doses (30 mg/kg equivalent to 27.5 mg/kg of LAP, n = 8). The i.v. doses were injected into the lateral tail vein, and oral doses were given by gavage. The doses were chosen based on previous toxicological and pharmacodynamic studies. At predetermined time points (30 min before dosing and at 0.08, 0.25, 0.5, 1, 2, 4, 6, 8, 12, and 24 h) after LAP i.v. administration, blood samples (200–250 μl) were withdrawn into heparinized tubes via puncture of the lateral tail vein, opposite to the vein used for drug dosing. The same procedure was carried out after oral administration of LAP, with blood sampling at 0.25, 0.5, 1, 1.5, 2, 3, 6, 12, 24, and 30 h. After LAP sodium salt i.v. and oral dosing, blood samples were harvested up to 10 and 12 h, respectively. Plasma was obtained by centrifugation of blood samples (6800 × g, at 4 °C for 10 min) and stored at –80 °C until analysis by UPLC-MS/MS.
LAP and LAP sodium salt pharmacokinetic parameters after i.v. and oral administration were determined from individual plasma profiles by a noncompartmental approach (NCA). The peak plasma concentration (Cmax) and the time of maximum concentration (Tmax) were obtained by visual inspection of the data from the plasma concentration–time curve after oral dosing. Pharmacokinetic parameters such an elimination rate constant (λ), area under the curve (AUC0–∞), clearance (CLtot), half-life (t1/2), volume of distribution (Vdss), mean residence time (MRT), and bioavailability (Fabs) were determined using classical equations. The compartmental analyses were performed using SCIENTIST v.2.0.1 software (MicroMath®, USA). One- and two-compartment models with or without weighting schemes were evaluated. The best model to fit the data was chosen based on the random distribution of residuals, the correlation coefficient, and the model selection criterion (MSC) given by the software.
The individual plasma profiles of LAP and LAP sodium salt after i.v. administration were best described by a two-compartmental open model. Plasma profiles after oral administration with two different doses of LAP and one dose of LAP sodium salt were best described by the one-compartmental model.
LAP concentration in plasma samples was determined by a validated (FDA, US Food and Drug Administration, 2001) UPLC-MS/MS method. Analyses were run on an Acquity UPLC BEH (Waters Acquity™) C18 column (2.1 × 50 mm, 1.7 μm particle size), with a flow of 300 μl/min at 35 °C. A gradient constituted of water (A) and acetonitrile (B) acidified with 0.1% acetic acid was used as follows: 0 min (90% A), 1 min (75% A), 7 min (50% A), 8.5 min (0% A) and 9.5 min (100% A). For the triple quadrupole, MS parameters were set as follows: capillary voltage (2.20 kV); extractor (3.0 V) source temperature (150 °C), desolvation temperature (300 °C), cone gas flow (50 l/h), and desolvation gas flow (700 l/h). For quantification, a multiple reaction monitoring method (MRM) was applied. For LAP, the transition of m/z 243 > 187 using cone energy of 24 V and collision energy of 19 V was determined as most appropriate for quantification (Calibration curves between 1 and 20,000 ng/ml of LAP, R > 0.99, low quantification limit of 1 ng/ml, and detection limit of 0.1 ng/ml).
A total of 200 μl cold acetonitrile containing internal standard (2-methyl-amino-lapachol) at 5 μg/ml and 0.05% trifluoroacetic acid was added to 100 μl of plasma and vortexed for 20 s. Precipitated protein was removed by centrifugation (6800 × g at 4 °C for 10 min). […]

human keratinocytes = tested on: human keratinocytes; design: method as in PMID 10479319; conditions: in vitro; cited from earlier work

In the case of `CC(C)=CCC1=C(O)C(=O)c2ccccc2C1=O` [LAP, 2-hydroxy-3-(3methyl-2-butenyl)-1,4-naphthoquinone], the “serum levels of ALT or AST” value ([1]; 3 mg/kg and 10 mg/kg orally daily, CIA protocol, 4 wk after boost) is reported as “did not alter the serum levels of ALT or AST”, the “tolerability (general symptoms of toxicity: piloerection, diarrhea, weight loss, prostration)” value ([1]; 3 mg/kg and 10 mg/kg orally once a day for 4 weeks, CIA mice) is reported as “well tolerated without apparent side effects” and the Ka ([2]; 10 mg/kg oral LAP, 1-Comp) is reported as 2.61 ± 0.85 h⁻¹. The t1/2ß ([2]; 10 mg/kg oral LAP, 1-Comp) was 4.2 ± 0.3 h, the Fabs ([2]; 10 mg/kg oral LAP, NCA) was 77% and the l ([2]; 10 mg/kg oral LAP, NCA) was 0.16 ± 0.01 h⁻¹. The Ka ([2]; 25 mg/kg oral LAP, 1-Comp) was 2.93 ± 0.79 h⁻¹, the Vdss ([2]; 25 mg/kg oral LAP, 1-Comp) was 0.24 ± 0.04 L/kg and the t1/2ß ([2]; 25 mg/kg oral LAP, 1-Comp) was 4.4 ± 0.6 h. The Fabs ([2]; 25 mg/kg oral LAP, NCA) was 65%, the l ([2]; 25 mg/kg oral LAP, NCA) was 0.19 ± 0.03 h⁻¹ and the AUC(0-inf) ([2]; 10 mg/kg, 10 mg/kg oral LAP, 1-Comp) was 237 ± 20.2 µg·h/mL. The AUC(0-inf) ([2]; 10 mg/kg, 10 mg/kg oral LAP, NCA) was 217 ± 22 µg·h/mL, the AUC(0-inf) ([2]; 25 mg/kg, 25 mg/kg oral LAP, 1-Comp) was 434 ± 79.7 µg·h/mL and the AUC(0-inf) ([2]; 25 mg/kg, 25 mg/kg oral LAP, NCA) was 449 ± 78.1 µg·h/mL. It also gave a k el ([2]; 10 mg/kg oral LAP, 1-Comp) of 4.72e-05 s⁻¹, a Cmax ([2]; 10 mg/kg oral LAP, NCA) of 31600 ± 3800 ng/mL and an MRT ([2]; 10 mg/kg oral LAP, NCA) of 7.2 ± 0.6 h. The Tmax ([2]; 10 mg/kg oral LAP, NCA) was 1.2 ± 0.3 h, the half-life ([2]; 10 mg/kg oral LAP, NCA) was 3.2 ± 0.2 h and the k el ([2]; 25 mg/kg oral LAP, 1-Comp) was 4.44e-05 s⁻¹. The Cmax ([2]; 25 mg/kg oral LAP, NCA) was 65600 ± 10600 ng/mL, the MRT ([2]; 25 mg/kg oral LAP, NCA) was 7.2 ± 0.7 h and the Tmax ([2]; 25 mg/kg oral LAP, NCA) was 1.3 ± 0.4 h. The half-life ([2]; 25 mg/kg oral LAP, NCA) was 3.6 ± 0.5 h and the “proliferation of human keratinocytes” value (human keratinocytes) was “can reduce proliferation of the human keratinocytes”.
